pIC50: −log10 of the molar value.
Columns and labels:
[1] = target: Sterol 14-alpha demethylase (Trypanosoma cruzi (strain CL Brener), UniProt Q7Z1V1); assay: GSK_TCAKS: pIC50 CYP51 from Trypanosoma cruzi.; format: functional
Trypanosoma cruzi [2] = assay: GSK_TCAKS: pIC50 Trypanosoma cruzi viability assay using beta-GAL activity. This assay was run at single shot at 5uM compound concentration per well. The biological reagents consisted of NIH-3T3 host cells and trypomastigotes parasitic cells; both cell types were set to a 3.3 * 10^5 cells/mL dilution in assay DMEM by means of a CASY cell counter device using a 60um capillary. 6 uL of the mixture were dispensed per well (about 1 * 10^3 host-cells and 1 * 10^3 parasites) with a Multidrop Combi dispenser. […] In all wells, the percentage of DMSO never exceeded 0.5%. Plates incubated for four days at 37C, 5% CO2. The substrate used for the assay fluorescence intensity (FLINT) readout was resorufin-beta-D-galactopiranoside (Sigma-Aldrich) at 5uM per well. It was diluted in PBS supplemented with the soft detergent Igepal (Fluka).; format: functional, organism-based, Mus musculus; settings: Tulahuen, NIH3T3
[3] = tested on: Trypanosoma brucei brucei; assay: GSK_TCAKS: pIC50 Trypanosoma brucei viability assay using luminiscence. Assay plates (1536-well) were prepared. T. brucei cultures were harvested and counted in a CASY cell counter. A parasite suspension was prepared at a final concentration of 5 * 10^4 cells/mL in complete HMI9 medium and 6uL was dispensed to all wells containing compounds using a Multidrop Combi dispenser. 6uL of HMI9 media with 0.4% DMSO were dispensed to control columns. Plates were incubated for 24 h at 37C, 5% CO2 then tempered for 10 min at room temperature. ATP content was quantified by adding 4 uL of CellTiter-Glo Reagent (Promega) according to the manufacturer's instructions. Luminescence was measured using a ViewLux.; format: functional, organism-based; settings: Lister 427, CASY
Leishmania donovani [4] = assay: (§1) GSK_TCAKS: pIC50 Leishmania donovani Imaging: THP-1 Host Macrophages. Assay plates (384-well) were prepared by adding 250nL of compound to each well. For single shot assay, the final compound concentration was 5 uM. […] Automated image analysis was performed with a script developed on Acapella High Content Imaging and Analysis Software (PerkinElmer). Output: THP-1 cell count were reported for each well.; format: functional, organism-based, Homo sapiens
Leishmania donovani [5] = assay: as §1, with “Infected” for “THP-1 Host”, “Percent of infected macrophage cells” for “THP-1 cell count”; format: functional, organism-based, Homo sapiens; settings: THP-1
Leishmania donovani [6] = assay: GSK_TCAKS: pIC50 Leishmania donovani viability assay using fluorescence intensity. Assay plates (1536-well) were prepared by adding 30nL per well of compound. For single shot assay, the final compound concentration was 5uM. […] Briefly, eGFP LdBOB axenic amastigotes were harvested, fixed and counted in a CASY cell counter (Roche-Applied Science). A final concentration of 1.5 * 10^5 cells per well were prepared in amastigote media containing 500 U/mL penicillin/streptomycin (Invitrogen) and 6uL was dispensed to each experimental well using a Multidrop Combi dispenser (Thermo Scientific). 6uL of assay media was dispensed to control columns used as reference for 100% compound response. Following incubation for 72 h at 37C, 5% CO2, 2 uL of resazurin was added to each well at a final concentration of 0.5 mM in phosphate buffered saline (PBS) with IGEPAL (Sigma-Aldrich), 0.05% (v/v).; format: functional, organism-based
[7] = tested on: Trypanosoma brucei brucei; assay: GSK_TCAKS: pIC50 Trypanosoma brucei viability assay using fluorescence intensity. Assay plates (1536-well) were prepared by dispensing 25nL of compound solution per well using an Echo acoustic dispenser (Labcyte).; format: functional, organism-based; settings: Lister 427, 2 h
Trypanosoma cruzi [8] = assay: GSK_TCAKS: pIC50 Trypanosoma cruzi Imaging: Amastigotes/Cell. […] Cells were then washed once with PBS before infection. T. cruzi trypomastigotes, collected at days 5 to 8 after infection from LLC-MK2 parasite infected cultures, were allowed to swim out for 4h at 37C from a centrifuged pellet (2,500 rpm/10 min/room temperature). Trypomastigotes were then collected and counted in a CASY Cell Counter. Trypomastigotes, in supplemented DMEM, were added to H9c2 cultures in a multiplicity of infection of 1 and incubated for 18 h. Cells were washed once with PBS before incubation of the infected H9c2 monolayer with trypsin (Life-Technologies) to detach cells from the flask. Cells were counted in a CASY Cell Counter using a 150 um capillary and their density set at 5 * 10^4 cells per mL in supplemented assay DMEM. Infected H9c2 were dispensed into 384-well poly-lysine coated assay plates at 50uL per well using a Multidrop Combi dispenser. After seeding them, the plates were incubated at 37C, 5% CO2 for 72h. Cultures were then fixed and stained by addition of 50 uL of a solution containing 8% formaldehyde and 4 uM DRAQ5 DNA dye (BioStatus, UK) per well. […] Five images were collected per well for reliable statistical analysis. Automated image analysis was performed with a script developed on Acapella High Content Imaging and Analysis Software (PerkinElmer). Output: number of amastigotes per cell as infection level measurement.; format: functional, organism-based, Rattus norvegicus; settings: H9c2, 4 h
Trypanosoma cruzi [9] = assay: (§2) GSK_TCAKS: pIC50 Trypanosoma cruzi Imaging: Infected Cells. […] Cells were then washed once with PBS before infection. T. cruzi trypomastigotes, collected at days 5 to 8 after infection from LLC-MK2 parasite infected cultures, were allowed to swim out for 4h at 37C from a centrifuged pellet (2,500 rpm/10 min/room temperature). Trypomastigotes were then collected and counted in a CASY Cell Counter. Trypomastigotes, in supplemented DMEM, were added to H9c2 cultures in a multiplicity of infection of 1 and incubated for 18 h. Cells were washed once with PBS before incubation of the infected H9c2 monolayer with trypsin (Life-Technologies) to detach cells from the flask. Cells were counted in a CASY Cell Counter using a 150 um capillary and their density set at 5 * 10^4 cells per mL in supplemented assay DMEM. Infected H9c2 were dispensed into 384-well poly-lysine coated assay plates at 50uL per well using a Multidrop Combi dispenser. After seeding them, the plates were incubated at 37C, 5% CO2 for 72h. Cultures were then fixed and stained by addition of 50 uL of a solution containing 8% formaldehyde and 4 uM DRAQ5 DNA dye (BioStatus, UK) per well. […] Five images were collected per well for reliable statistical analysis. Automated image analysis was performed with a script developed on Acapella High Content Imaging and Analysis Software (PerkinElmer). Output: percentage of infected cells per well as a second infection marker.; format: functional, organism-based, Rattus norvegicus; settings: H9c2, 4 h
Leishmania donovani [10] = assay: as §1, with “Amastigotes/Macrophages.” for “THP-1 Host Macrophages.”, “Average number of amastigotes per macrophage” for “THP-1”, “cell” for “cell count”; format: functional, organism-based, Homo sapiens; settings: THP-1
Trypanosoma cruzi [11] = assay: as §2, with “H2C9” for “Trypanosoma cruzi”, “H9c2 Host Cardiomyocytes.” for “Infected Cells.”, “Number” for “percentage”, “H9c2 Host Cardiomyocytes nuclei to determine drug-related cytotoxicity.” for “infected cells per well as a second infection marker.”; format: functional, organism-based, Rattus norvegicus; settings: H9c2, 4 h
[12] = GSK_TCAKS: pIC50 HepG2 human cell line viability assay using luminiscence. […] Seeding density was checked to ensure that new mono-layers were not more than 50% confluent at the time of harvesting. Cell suspension was added to 500 mL of the same medium at a final density of 1.2 * 10^5 cells/mL. This cell suspension was dispensed (25 uL, 3000 cells per well) into 384-well clear-bottom plates using a Multidrop Combi dispenser. Prior to addition of the cell suspension, the screening compounds (250 nL) were pre-dispensed into the plates with an Echo liquid handler. Plates were incubated for 48 h at 37C, 5% CO2. After incubation, plates equilibrated at room temperature for 30 min before proceeding to develop the luminescent signal. The signal developer, CellTiter-Glo Reagent, was allowed to equilibrate at room temperature for 30 min and added to the plates (25uL per well) using a Multidrop Combi dispenser. Plates were left for 10 min at room temperature for stabilization and then read using a ViewLux.; format: toxicity, cell-based

Chain of Sterol 14-alpha demethylase (Q7Z1V1 whole entry): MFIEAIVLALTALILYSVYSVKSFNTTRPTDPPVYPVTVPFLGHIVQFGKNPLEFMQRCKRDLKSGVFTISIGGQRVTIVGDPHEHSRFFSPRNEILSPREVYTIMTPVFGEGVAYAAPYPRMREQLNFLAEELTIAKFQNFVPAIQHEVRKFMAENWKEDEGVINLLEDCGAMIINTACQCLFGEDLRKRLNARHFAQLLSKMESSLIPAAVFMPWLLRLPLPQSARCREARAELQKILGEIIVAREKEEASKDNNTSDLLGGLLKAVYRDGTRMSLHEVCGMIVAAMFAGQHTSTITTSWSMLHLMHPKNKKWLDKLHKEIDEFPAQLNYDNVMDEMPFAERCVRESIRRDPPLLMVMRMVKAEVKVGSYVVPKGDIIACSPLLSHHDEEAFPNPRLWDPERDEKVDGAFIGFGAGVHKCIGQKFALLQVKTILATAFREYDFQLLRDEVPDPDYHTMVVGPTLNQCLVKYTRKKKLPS

Compound	pIC50 [1]	pIC50 (Trypanosoma cruzi [2])	pIC50 [3]	pIC50 (Leishmania donovani [4])	pIC50 (Leishmania donovani [5])	pIC50 (Leishmania donovani [6])	pIC50 [7]	pIC50 (Trypanosoma cruzi [8])	pIC50 (Trypanosoma cruzi [9])	pIC50 (Leishmania donovani [10])	pIC50 (Trypanosoma cruzi [11])	IC50 at 48 h [12]
Cc1ccnc(NS(=O)(=O)c2ccc(NC(=O)c3ccc([N+](=O)[O-])s3)cc2)n1	4.20	5.70	6.40	5.00	5.00	5.40	6.70	5.20	5.00	5.30	5.30	15.8 µM
COc1cccc(NS(=O)(=O)c2ccc3ncc(C(=O)NCCC(C)C)c(O)c3c2)c1	5.20	< 4.30	6.20	< 4.30	< 4.30	< 4.30	6.50	4.80	4.50	< 4.30	4.90	31.6 µM
CC(=O)Nc1ccc(-c2ccnc(Nc3cccc(C#N)c3)n2)cc1	4.60	5.20	6.10	5.00	4.80	4.40	6.20	5.50	5.20	5.00	4.90	> 100 µM
O=C(NCCCn1cnc2ccccc21)c1ccc(NC(=O)c2ccco2)cc1	4.80	5.40	6.60	< 4.30	< 4.30	5.90	6.70	5.90	5.70	4.90	< 4.30	15.8 µM
CCN(Cc1cccs1)C(=O)CSc1nnc(-c2ccc3c(c2)OCO3)o1	5.10	5.40	< 4.40	< 4.30	5.70	5.50	4.60	5.80	5.60	5.70	< 4.30	> 100 µM
C=CCN(Cc1cccs1)C(=O)CSc1nnc(-c2ccc3c(c2)OCO3)o1	5.10	5.20	4.40	< 4.30	5.50	5.20	4.70	6.30	6.20	5.90	< 4.30	> 100 µM
N#Cc1cnc(Nc2cccc(CCN3CCOCC3)c2)nc1Nc1ccccc1C(N)=O	5.00	5.90	6.60	6.10	5.80	5.60	7.20	5.70	5.50	6.00	7.90	25.1 µM
CCOc1ccc(N(C)S(=O)(=O)c2ccc3[nH]cc(C(=O)NC4CCCC4)c(=O)c3c2)cc1	5.20	5.10	6.30	4.60	4.50	< 4.30	6.60	5.20	< 4.30	4.50	< 4.30	50.1 µM
